Experimental data from patent publication US9018187B2, “Cationic lipids and methods for the delivery of therapeutic agents” (Protiva Biotherapeutics, Inc., priority 2009, dated 2015).

How the values were obtained:
[1] = system: ApoB mRNA in ApoE−/− primary hepatocytes; experiment: ApoB silencing in ApoE−/− primary hepatocytes after serum pre-incubation of SNALP; assay type: cell-based, mouse; details: FIGS. 12-14; 1:57 SNALP pre-incubated with C57 or ApoE−/− serum, 40-0.625 nM siRNA on hepatocytes, 24 hr
Protocol: ApoE−/− primary hepatocytes were isolated and plated at 2.5×10^4 cells/well. Each SNALP formulation was pre-incubated with 50% C57 (ApoE-containing) serum or ApoE−/− serum at siRNA concentrations of 4000-62.5 nM for 1 hr at 37° C. Samples were then diluted to 40-0.625 nM on the hepatocytes for 24 hr. After 24 hr, cells were lysed and ApoB and GAPD mRNA levels were measured via bDNA (QG) assay.

[2] = TNS assay, apparent pKa of cationic lipid in 1:57 SNALP; details: 1:57 SNALP formulation containing encapsulated APOB siRNA
Protocol: 1:57 SNALP formulations containing encapsulated APOB siRNA were prepared as described in Section VI above with the following cationic lipids: (1) DLinDMA; (2) DLenDMA; (3) γ-DLenDMA (“g-DLenDMA”); (4) C2-DLinDAP; (5) DLinPip (4-OH); (6) DLinPip; (7) DLinPip (3-OH); (8) DLinDEA; (9) DDocDMA; (10) DAraDMA; (11) TLinDMA; (12) DLin-C2K Pip (30H); (13) DHep-C2K-DMA; (14) DPanDMA; (15) C2-DPanDMA (“DPan-C2-DMA”); (16) DPan-C2K-DMA; (17) DPan-C3K-DMA; (18) DPan-K6-DMA (“DPan-C1K6-DMA”); and (19) C2-TLinDMA.
The apparent pKa of the cationic lipids present in these SNALP formulations was determined using a 2-(p-toluidinyl)-naphthalene-6-sodium sulfonate (TNS) assay. TNS is a negatively-charged indicator of membrane potential that is electrostatically attracted to positively charged membranes (see, Bailey and Cullis, Biochemistry, 33 12573-80 (1994)). Subsequent adsorption to the lipid membrane results in the immediate environment of the TNS becoming more lipophilic, removing the water molecules that otherwise quench TNS fluorescence. As a result, TNS measures the surface potential of the particle, wherein the more positive the surface potential, the greater the level of fluorescence. The surface pKa values of each SNALP formulation were determined by varying the local pH in the presence of TNS. By plotting fluorescence versus pH, the pKa of the cationic lipid can be estimated in the particle as the pH where fluorescence equals 50% of total fluorescence.

liver ApoB mRNA = experiment: Liver ApoB mRNA knockdown by 1:57 SNALP with APOB siRNA in mice; assay type: in vivo, mouse; details: for ApoB silencing activity (liver ApoB mRNA): 6:1 L:D, IV 0.1 mg/kg; for ApoB knockdown: similar study with 1:57 SNALP containing C2-TLinDMA (Example 16)
Protocol: Each SNALP formulation was administered by intravenous (IV) injection at 0.1 mg/kg into female Balb/c mice (n=3 per group). Plasma total cholesterol and/or liver ApoB mRNA levels were evaluated at 48 hours after SNALP administration. For dose response studies, SNALP formulations were administered by IV injection at 0.01 mg/kg, 0.03 mg/kg, or 0.1 mg/kg into female Balb/c mice (n=3 per group). Liver ApoB mRNA levels were evaluated at 48 hours after SNALP administration.
1:57 SNALP formulations containing encapsulated APOB siRNA at a 6:1 lipid:drug (L:D) ratio were prepared with the following cationic lipids: (1) DLinDMA; (2) Linoleyl/Linolenyl DMA (“Lin/LenDMA”); (3) DPanDMA; (4) TLinDMA; (5) Linoleyl/C6:0 DMA (“Lin/6:0”); (6) C2-DPanDMA; (7) DLin-C2K-Pip (30H); and (8) DHep-C2K-DMA.
Each SNALP formulation was administered by intravenous (IV) injection at 0.1 mg/kg into female Balb/c mice (n=3 per group). Livers were colleted at 48 hours after SNALP administration and liver ApoB mRNA levels were evaluated by performing an ApoB/GAPDH QG assay. Table 2 provides a characterization of the SNALP formulations used in this in vivo study.
In another study, 1:57 SNALP formulations containing encapsulated APOB siRNA at a 6:1 L:D ratio were prepared with the following cationic lipids: (1) DLinDMA; (2) C2-DPanDMA; (3) DPan-C2K-DMA; (4) DPan-C3K-DMA; and (5) DPan-C1K6-DMA.
Each SNALP formulation was administered by intravenous (IV) injection at 0.1 mg/kg into female Balb/c mice (n=3 per group). Livers were colleted at 48 hours after SNALP administration and liver ApoB mRNA levels were evaluated by performing an ApoB/GAPDH QG assay. Table 3 provides a characterization of the SNALP formulations used in this in vivo study.
For dose response studies, SNALP formulations were administered by IV injection at 0.01 mg/kg, 0.033 mg/kg, or 0.1 mg/kg into female Balb/c mice (n=3 per group). Liver ApoB mRNA levels were evaluated at 48 hours after SNALP administration by a branched DNA assay (QuantiGene assay) to assess ApoB mRNA relative to the housekeeping gene GAPDH.

[3] = Characterization of SNALP formulations (size, polydispersity, encapsulation); assay type: physicochemical; details: Table 5; for Initial Encaps. (%): 7:54 SNALP (PEG750-C-DMA 6.76 | cationic 54.06 | Chol 32.43 | DPPC 6.75 mol %) with PLK-1 siRNA; for Finished Product Encaps. (%) / Finished Product Poly / Finished Product Z-Avg (nm): 7:54 SNALP with PLK-1 siRNA
Protocol: In the context of nucleic acids, full encapsulation may be determined by performing a membrane-impermeable fluorescent dye exclusion assay, which uses a dye that has enhanced fluorescence when associated with nucleic acid. Specific dyes such as OliGreen® and RiboGreen® (Invitrogen Corp.; Carlsbad, Calif.) are available for the quantitative determination of plasmid DNA, single-stranded deoxyribonucleotides, and/or single- or double-stranded ribonucleotides. Encapsulation is determined by adding the dye to a liposomal formulation, measuring the resulting fluorescence, and comparing it to the fluorescence observed upon addition of a small amount of nonionic detergent. Detergent-mediated disruption of the liposomal bilayer releases the encapsulated nucleic acid, allowing it to interact with the membrane-impermeable dye. Nucleic acid encapsulation may be calculated as E=(Io−I)Io, where I and Io refer to the fluorescence intensities before and after the addition of detergent (see, Wheeler et al., Gene Ther., 6:271-281 (1999)). […]
Each SNALP formulation was administered by intravenous (IV) injection at 3 mg/kg into Scid mice containing Hep3B tumors (n=4 per group). Tumor tissue was colleted at 24 hours after SNALP administration and tumor PLK-1 mRNA levels were evaluated by performing a PLK-1/GAPDH QG assay. Table 5 provides a characterization of the SNALP formulations used in this in vivo study.

[4] = Tolerability of 1:57 SNALP, liver enzyme levels; assay type: in vivo, mouse; details: FIG. 7, single IV bolus 10, 15 or 20 mg/kg, Balb/c mice, 48 hours post-injection, vs PBS control
Protocol: The tolerability of the 1:57 γ-DLenDMA SNALP formulation was evaluated with a single IV bolus injection of SNALP at either 10 mg/kg, 15 mg/kg, or 20 mg/kg in Balb/c mice (n=3 per group). Liver enzyme levels were measured at 48 hours post-injection.

[5] = Example 16, FIG. 8, 1:57 SNALP, female Balb/c mice, 48 hours, ApoB/GAPDH QG assay
[6] = Example 16 second study, FIG. 9, 1:57 SNALP, female Balb/c mice, 48 hours

| Compound | pKa [2] | Initial Encaps. (%) [3] | Finished Product Encaps. (%) [3] | Finished Product Poly [3] | Finished Product Z-Avg (nm) [3] | further results |
| --- | --- | --- | --- | --- | --- | --- |
| CCCCC/C=C\C/C=C\CCCCCCCCC1(CCCCCCCC/C=C\C/C=C\CCCCC)OCC(CCCN(C)C)O1 (stereo not drawn) [DLin-C3K-DMA] |  |  |  |  |  | ApoB silencing activity and its dependence on ApoE [1]: less dependent on ApoE compared to other formulations tested |
| CCCCC/C=C\C/C=C\C/C=C\CCCCCC1(CCCCC/C=C\C/C=C\C/C=C\CCCCC)OCC(CCN(C)C)O1 (stereo not drawn) [g-DLen-C2K-DMA] |  |  |  |  |  | KD50 value (liver ApoB mRNA; Example 17, FIG. 10, liver ApoB mRNA knockdown dose response): identical KD50 value compared to a SNALP formulation containing C2K |
| CC/C=C\C/C=C\C/C=C\CCCCCCCCC1(CCCCCCCC/C=C\C/C=C\C/C=C\CC)OCC(CCN(C)C)O1 (stereo not drawn) [DLen-C2K-DMA] |  |  |  |  |  | liver ApoB mRNA knockdown activity (liver ApoB mRNA; Example 17, FIG. 10, 1:57 SNALP, IV 0.01, 0.033 or 0.1 mg/kg, female Balb/c mice, 48 hours, QuantiGene assay vs GAPDH): considerable potency in silencing ApoB mRNA expression |
| CC/C=C\C/C=C\C/C=C\CCCCCCCCOC(COCCCCCCCC/C=C\C/C=C\CCCCC)CN(C)C (stereo not drawn) [Linoleyl/Linolenyl DMA] |  |  |  |  |  | liver ApoB mRNA knockdown activity (silencing ApoB expression) (liver ApoB mRNA; Example 14, FIGS. 3-6, 1:57 SNALP with APOB siRNA, IV 0.1 mg/kg (dose response 0.01, 0.03, 0.1 mg/kg), female Balb/c mice, 48 hours): greater ApoB silencing activity compared to a SNALP formulation containing DLinDMA; ApoB silencing activity (liver ApoB mRNA) (liver ApoB mRNA; [5]): more potent silencing activity than DLinDMA |
| CCCCC/C=C\C/C=C\CCCCCCCCOCC(COCC(CCN(C)C)OCCCCCCCC/C=C\C/C=C\CCCCC)OCCCCCCCC/C=C\C/C=C\CCCCC (stereo not drawn) [Compound C2-TLinDMA] | ~5.85 |  |  |  |  | ApoB knockdown (liver ApoB mRNA): 49% |
| CC/C=C\C/C=C\C/C=C\CCCCCCCCOCC(CN(C)C)OCCCCCCCC/C=C\C/C=C\C/C=C\CC (stereo not drawn) [DLenDMA, 1,2-dilinolenyloxy-N,N-dimethylaminopropane, reference compound] |  |  |  |  |  | ApoB silencing activity and its dependence on ApoE [1]: greatest levels of silencing activity when ApoE-containing serum was present; liver enzyme levels [4]: did not significantly elevate liver enzyme levels |
| CCCCCC=CCC=CCCCCCCCCC1(CCCCCCCC/C=C\C/C=C\CCCCC)OCC(CCCCN(C)C)O1 (stereo not drawn) [DLin-C4K-DMA] |  |  |  |  |  | ApoB silencing activity and its dependence on ApoE [1]: less dependent on ApoE compared to other formulations tested |
| CCCCC/C=C\C/C=C\C/C=C\CCCCCOCC(CN(C)C)OCCCCC/C=C\C/C=C\C/C=C\CCCCC (stereo not drawn) [γ-DLenDMA, 1,2-Di-γ-linolenyloxy-N,N-dimethylaminopropane] |  |  |  |  |  | liver enzyme levels [4]: did not significantly elevate liver enzyme levels |

The next lines start with results.

| pKa [2] | Initial Encaps. (%) [3] | Finished Product Encaps. (%) [3] | Finished Product Poly [3] | Finished Product Z-Avg (nm) [3] | Compound | further results |
| --- | --- | --- | --- | --- | --- | --- |
| ~6.05 |  |  |  |  | CCCCC/C=C\C/C=C\CCCCCCCCC1(CCCCCCCC/C=C\C/C=C\CCCCC)OCC(CCN2CCCC(O)C2)O1 (stereo not drawn) [DLin-C2K Pip (30H)] |  |
|  | 56% | 98% | 0.05 | 84 nm | CCCCC/C=C\C/C=C\CCCCCCCCC1(CCCCCCCC/C=C\C/C=C\CCCCC)OCC(CN(C)C)O1 (stereo not drawn) [DLin-C1K-DMA, reference compound] |  |
| ~5.95 | 84% | 100% | 0.08 | 76 nm | CC(C)CCCC(C)CCCC(C)CCCC(C)CCC1(CCC(C)CCCC(C)CCCC(C)CCCC(C)C)OCC(CCN(C)C)O1 (stereo not drawn) [DPan-C2K-DMA] | ApoB silencing activity (liver ApoB mRNA) (liver ApoB mRNA; [6]): more potent compared to DLinDMA |
|  | 75% | 98% | 0.08 | 74 nm | CCCCC/C=C\C/C=C\CCCCCCCCOCC(CN(C)C)OCCCCCCCC/C=C\C/C=C\CCCCC (stereo not drawn) [DLinDMA, 1,2-dilinoleyloxy-N,N-dimethylaminopropane, reference compound] | ApoB knockdown (liver ApoB mRNA): 25% |
| ~6.25 | 86% | 100% | 0.06 | 81 nm | CC(C)CCCC(C)CCCC(C)CCCC(C)CCC1(CCC(C)CCCC(C)CCCC(C)CCCC(C)C)OCC(CCCN(C)C)O1 (stereo not drawn) [DPan-C3K-DMA] | ApoB silencing activity (liver ApoB mRNA) (liver ApoB mRNA; [6]): more potent compared to DLinDMA |
| ~6.05 |  |  |  |  | CCCCCCCC/C=C/CCCCCCCC1(CCCCCCC/C=C/CCCCCCCC)OCC(CCN(C)C)O1 (stereo not drawn) [DHep-C2K-DMA] | ApoB silencing activity (liver ApoB mRNA) (liver ApoB mRNA; [5]): comparable to DLinDMA with respect to silencing activity |
| ~5.5 | 71% | 99% | 0.06 | 80 nm | CC(C)CCCC(C)CCCC(C)CCCC(C)CCC1(CCC(C)CCCC(C)CCCC(C)CCCC(C)C)OCC(CN(C)C)CO1 (stereo not drawn) [DPan-C1K6-DMA] |  |
| ~5.65 |  |  |  |  | CCCCC/C=C\C/C=C\C/C=C\C/C=C\CCCCOCC(CN(C)C)OCCCC/C=C\C/C=C\C/C=C\C/C=C\CCCCC (stereo not drawn) [DAraDMA, 1,2-Diarachidonyloxy-(N,N-dimethyl)-propyl-3-amine] |  |
| ~5.35 | 70% | 100% | 0.07 | 126 nm | CCCCC/C=C\C/C=C\CCCCCCCCOCC(COCC(CN(C)C)OCCCCCCCC/C=C\C/C=C\CCCCC)OCCCCCCCC/C=C\C/C=C\CCCCC (stereo not drawn) [TLinDMA, 1-(2,3-linoleyloxypropoxy)-2-(linoleyloxy)-(N,N-dimethyl)-propyl-3-amine] | ApoB silencing activity (liver ApoB mRNA) (liver ApoB mRNA; [5]): silencing activity that was comparable to DLinDMA |
| ~5.65 |  |  |  |  | CC/C=C\C/C=C\C/C=C\C/C=C\C/C=C\C/C=C\CCCOCC(CN(C)C)OCCC/C=C\C/C=C\C/C=C\C/C=C\C/C=C\C/C=C\CC (stereo not drawn) [DDocDMA, 1,2-Didocosahexaenyloxy-(N,N-dimethyl)-propyl-3-amine] |  |
